Experimental data taken from US6034065A, “Elucidation and synthesis of antineoplastic tetrapeptide phenethylamides of dolastatin 10” (Arizona Board of Regents, priority 1992, dated 2000).

Experiments:
Format in all cases: cell-based
human cancer cell line = test: Human cancer cell line activity compared to dolastatin 10
P-388 = test: Mouse leukemia cell P-388 growth inhibition
Protocol: (§1) The structural modifications of dolastatin 10 whose design and synthesis are described herein were evaluated for antineoplastic activity. This evaluation was conducted using the standard protocols established by National Cancer Institute (NCI) as described above. These protocols do evaluate whether the substances in question have antineoplastic activity against certain human cancer cell lines derived from human cancer patients. Substantial activity was found in those compounds tested. The antineoplastic activity of the compounds is reported below in Table 1. The results of the 60 cell line NCI in vitro testing of compound 6b conducted Jun. 22, 1992, is reported below in Table 2.

OVCAR-3 = test: NCI human cancer cell line test, Ovarian OVCAR-3
From the text: (§2) Only two hundred years ago, many diseases ravaged humankind. Many of these diseases have been controlled or eradicated. In the development of the means to treat or control these diseases, work with the appropriate common experimental animals was of critical importance. With the various types of cancers, and with the HIV virus, such work is presently ongoing. The research for the treatment of various types of cancer is coordinated by the National Cancer Institute (NCI).NCI, as a government entity, has been charged with assisting anti-cancer research. To establish whether a substance has anti cancer activity, NCI has established a protocol. This protocol, which involves testing a substance against a cell line panel containing 60 human tumor cell lines, has been verified, and is accepted in scientific circles. This protocol, and the established statistical means of evaluating the results obtained therefrom have been amply described in the literature. See e.g. Principles & Practice of Oncology PPO Updates, Volume 3, Number 10, October 1989, by Michael R. Boyd, M.D., Ph.D., for a description of the protocol. The statistical analysis is explained in "Display and Analysis of Patterns of Differential Activity of Drugs Against Human Tumor Cell Lines: Development of Mean Graph and COMPARE Algorithm" Journal of the National Cancer Institute Reports Vol. 81, No. 14, Pg. 1088, Jul. 14, 1989, by K. D. Paull et al. Both articles are incorporated herein by this reference as if fully set forth.
as §1

SF-295 = test: NCI human cancer cell line test, CNS SF-295
From the text: as §2, §1

A498 = test: NCI human cancer cell line test, Renal A498
From the text: as §2, §1

NCI-460 = test: NCI human cancer cell line test, Lung-NSC NCI-460
From the text: as §2, §1

KM20L2 = test: NCI human cancer cell line test, Colon KM20L2
From the text: as §2, §1

SK-MEL-3 = test: NCI human cancer cell line test, Melanoma SK-MEL-3
From the text: as §2, §1

| Substance | human cancer cell line activity as compared to dolastatin 10 (human cancer cell line) | ED-50 (P-388) [mg/mL] | GI-50 (OVCAR-3) [µg/mL] | LC-50 (OVCAR-3) [µg/mL] | TGI (OVCAR-3) [ng/mL] | GI-50 (SF-295) [µg/mL] | LC-50 (SF-295) [µg/mL] | TGI (SF-295) [ng/mL] | GI-50 (A498) [µg/mL] | LC-50 (A498) [µg/mL] | TGI (A498) [ng/mL] | GI-50 (NCI-460) [µg/mL] | LC-50 (NCI-460) [µg/mL] | TGI (NCI-460) [ng/mL] | GI-50 (KM20L2) [µg/mL] | LC-50 (KM20L2) [µg/mL] | TGI (KM20L2) [ng/mL] | GI-50 (SK-MEL-3) [µg/mL] | LC-50 (SK-MEL-3) [µg/mL] | TGI (SK-MEL-3) [ng/mL] |
| --- | --- | --- | --- | --- | --- | --- | --- | --- | --- | --- | --- | --- | --- | --- | --- | --- | --- | --- | --- | --- |
| R-Doe-isodolastatin 10 | did not show any significant difference | – | – | – | – | – | – | – | – | – | – | – | – | – | – | – | – | – | – | – |
| [2S-[1[1R*(R*),2S*],2R*[1S*,2S*]]]-N,N-dimethyl-L-valyl-N-[2-methoxy-4-[2- [1-methoxy-2-methyl-3-oxo-3-[[2-phenyl-ethyl]amino]propyl]-1-pyrrolidinyl-1-(methylpropyl)-4-oxobutyl]-N-methyl-L-valineamide [Compound 6b] | – | 0.0005 | 0.000004 | < 0.0001 | 0.027 | 0.000014 | < 0.0001 | 0.042 | 0.000013 | < 0.0001 | < 0.1 | 0.000005 | < 0.0001 | < 0.1 | 0.000005 | < 0.0001 | < 0.1 | 0.000012 | < 0.0001 | < 0.1 |
| [2S-[1[1R*(R*),2S*],2R*[1S*,2S*]]]-N,N-dimethyl-L-valyl-N-[2-methoxy-4-[2- [1-methoxy-2-methyl-3-oxo-3-[[3-phenyl-propyl]amino]propyl]-1-pyrrolidinyl- 1-(methylpropyl)-4-oxobutyl]-N-methyl-L-valineamide [Compound 6c] | – | 0.00044 | 0.00018 | < 0.01 | 0.54 | 0.00028 | < 0.01 | 0.79 | 0.00039 | < 0.01 | < 10 | 0.00031 | < 0.01 | < 10 | 0.00033 | < 0.01 | < 10 | 0.00031 | < 0.01 | < 10 |
| [2S-[1[1R*(R*),2S*],2R*[1S*,2S*]]]-N,N-dimethyl-L-valyl-N-[2-methoxy-4-[2- [1-methoxy-2-methyl-3-oxo-3-benzylamino-propyl]-1-pyrrolidinyl-1-(methylpropyl)-4-oxobutyl]-N-methyl-L-valineamide [Compound 6a] | – | 0.00378 | < 0.0001 | < 0.0001 | < 0.1 | < 0.0001 | < 0.0001 | < 0.1 | < 0.0001 | < 0.0001 | < 0.1 | < 0.0001 | < 0.0001 | < 0.1 | < 0.0001 | < 0.0001 | < 0.1 | < 0.0001 | < 0.0001 | < 0.1 |
